Assay results taken from US10828317B2, “Method of treating bacterial infections” (priority 2016, dated 2020).
Converted amounts (≈) assume the structure as drawn. “And” between values parts separate entries of the source, which are not always exact repeats. Equal values may be shown once. Read-outs that look alike come from different tables or passages of the source.

Tests used:
E. coli = test: Murine peritonitis model; type: in vivo, mice; design: score at sampling: scale not given here; conditions: for CFU/ml PF / log CFU/ml PF / score at sampling: per mouse
K. pneumoniae EN0262 = conditions: commercial antibiotics; data provided by IMBIM, BMC, Uppsala University; cited from earlier work
S. marescens EN0454 = test: MIC; type: cell-based, Serratia marescens; conditions: Serratia, EN0454, Combination 2 AZT+trimethoprim+uridine+thymidine, Table 16; read-out: MIC
M. luteus EN0455 = test: MIC; type: cell-based, Micrococcus luteus; conditions: Micrococcus luteus, EN0455, Combination 2 AZT+trimethoprim+uridine+thymidine, Table 16; read-out: MIC
P. mirabilis EN0457 = test: MIC; type: cell-based, Proteus mirabilis; conditions: Proteus mirabilis, EN0457, Combination 2 AZT+trimethoprim+uridine+thymidine, Table 16; read-out: MIC
P. aeruginosa EN0459 = test: MIC; type: cell-based, Pseudomonas aeruginosa; conditions: Pseudomonas aeruginosa, read-out: MIC
P. aeruginosa EN0460 = test: MIC; type: cell-based, Pseudomonas aeruginosa; conditions: Pseudomonas aeruginosa, read-out: MIC
Citrobacter sp. EN0465 = test: MIC; type: cell-based; conditions: Citrobacter, read-out: MIC
[1] = tested on: A. pittii or A. nosocomialis EN0180; test: MIC; type: cell-based, Acinetobacter pittii or nosocomialis; conditions: read-out: MIC
P. aeruginosa EN0422 = test: MIC; type: cell-based, Pseudomonas aeruginosa; conditions: Pseudomonas aeruginosa, read-out: MIC
P. mirabilis ST19 EN0445 = test: MIC; type: cell-based, Proteus mirabilis; conditions: Proteus mirabilis, read-out: MIC
E. coli EN002 = test: MIC, DtoIC; type: cell-based, Escherichia coli; conditions: Escherichia coli, read-out: MIC
P. aeruginosa EN004 = test: MIC, WT (EN004 = EN0004); type: cell-based, Pseudomonas aeruginosa
A. baumannii EN007 = test: MIC, WT (EN007 = EN0007); type: cell-based, Acinetobacter baumannii
S. aureus EN008 = test: MIC, Gram-positive control; type: cell-based, Staphylococcus aureus; conditions: Staphylococcus aureus, EN008, Combination 2 AZT+trimethoprim+uridine+thymidine, Table 16; read-out: MIC
P. aeruginosa EN014 = test: MIC, WT; type: cell-based, Pseudomonas aeruginosa; conditions: Pseudomonas aeruginosa, read-out: MIC
A. baumannii EN016 = test: MIC, WT; type: cell-based, Acinetobacter baumannii; conditions: Acinetobacter baumannii, read-out: MIC
S. aureus strain no 13 = test: MIC vs S. aureus LMG 15975, MRSA; conditions: for MIC: Staphylococcus aureus; for MIC BrdUrd: 2 μg/ml of trimethoprim
E. coli strain no 2 = test: MIC vs E. coli LMG 15862, penicillin resistant; conditions: Escherichia coli, Uridine 0 μg/ml
S. flexneri APV00906 = test: microbe, parasite or virus in culture; type: cell-based; conditions: for Antibiogram category (resistance pattern): letter before the MIC
Text: (§1) Inhibition of Heliobacter is important in view of increasing resistance and its association to gastric cancer.

S. flexneri APV00907 = test: MIC and antibiogram; type: cell-based; conditions: for Antibiogram category (resistance pattern): letter before the MIC
Text: as §1

S. sonnei APV00908 = test: MIC and antibiogram; type: cell-based; conditions: for Antibiogram category (resistance pattern): letter before the MIC
[2] = combination AZT+trimethoprim+uridine, Table 17B

## O=C(O)c1cn(C2CC2)c2cc(N3CCNCC3)c(F)cc2c1=O [Ciprofloxacin, ciprofloxacin]
E. coli; Ciprofloxacin 14 mg/kg
  CFU/ml PF: 1.75E+03 CFU/ml and 2.50E+02 CFU/ml and 1.00E+03 CFU/ml (2×)
  log CFU/ml PF: 3.24 log CFU/ml and 2.40 log CFU/ml and 3.00 log CFU/ml (2×)
  score at sampling: 0
K. pneumoniae EN0262
  MIC: >2 µg/mL

## Cc1cn([C@H]2C[C@H](N=[N+]=[N-])[C@@H](CO)O2)c(=O)[nH]c1=O [AZT, 3′-azido-3′-deoxythymidine]
S. marescens EN0454
  MIC: > 4 µg/mL
M. luteus EN0455
  MIC: > 4 µg/mL
P. mirabilis EN0457
  MIC: > 4 µg/mL
P. aeruginosa EN0459; EN0459, Combination 1 AZT+trimethoprim+uridine, Table 16
  MIC: > 4 µg/mL
P. aeruginosa EN0459; EN0459, Combination 2 AZT+trimethoprim+uridine+thymidine, Table 16
  MIC: > 4 µg/mL
P. aeruginosa EN0459; EN0459, combination AZT+trimethoprim+uridine, Table 6
  MIC: > 4 µg/mL
P. aeruginosa EN0460; EN0460, Combination 1 AZT+trimethoprim+uridine, Table 16
  MIC: > 4 µg/mL
P. aeruginosa EN0460; EN0460, Combination 2 AZT+trimethoprim+uridine+thymidine, Table 16
  MIC: > 4 µg/mL
P. aeruginosa EN0460; EN0460, combination AZT+trimethoprim+uridine, Table 6
  MIC: > 4 µg/mL
Citrobacter sp. EN0465; SP.EN0465, Combination 1 AZT+trimethoprim+uridine, Table 16
  MIC: > 4 µg/mL
Citrobacter sp. EN0465; SP.EN0465, Combination 2 AZT+trimethoprim+uridine+thymidine, Table 16
  MIC: > 4 µg/mL
Citrobacter sp. EN0465; SP.EN0465, combination AZT+trimethoprim+uridine, Table 6
  MIC: > 4 µg/mL
[1]; Combination 1 AZT+trimethoprim+uridine, Table 16
  MIC: > 4 µg/mL
[1]; Combination 2 AZT+trimethoprim+uridine+thymidine, Table 16
  MIC: > 4 µg/mL
[1]; combination AZT+trimethoprim+uridine, Table 6
  MIC: > 4 µg/mL
P. aeruginosa EN0422; EN0422, Combination 1 AZT+trimethoprim+uridine, Table 16
  MIC: > 4 µg/mL
P. aeruginosa EN0422; EN0422, Combination 2 AZT+trimethoprim+uridine+thymidine, Table 16
  MIC: > 4 µg/mL
P. aeruginosa EN0422; EN0422, combination AZT+trimethoprim+uridine, Table 6
  MIC: > 4 µg/mL
P. mirabilis ST19 EN0445; ST19EN0445, Combination 2 AZT+trimethoprim+uridine+thymidine, Table 16
  MIC: > 4 µg/mL
P. mirabilis ST19 EN0445; ST19EN0445, combination AZT+trimethoprim+uridine, Table 6
  MIC: > 4 µg/mL
E. coli EN002; EN002, Combination 1 AZT+trimethoprim+uridine, Table 16
  MIC: 0.016 µg/mL
E. coli EN002; EN002, combination AZT+trimethoprim+uridine, Table 6
  MIC: 0.016 µg/mL
P. aeruginosa EN004; Pseudomonas aeruginosa, EN004, Combination 1 AZT+trimethoprim+uridine, Table 16, read-out: MIC
  MIC: > 4 µg/mL
P. aeruginosa EN004; Pseudomonas aeruginosa, EN004, Combination 2 AZT+trimethoprim+uridine+thymidine, Table 16, read-out: MIC
  MIC: > 4 µg/mL
P. aeruginosa EN004; Pseudomonas aeruginosa, EN004, combination AZT+trimethoprim+uridine, Table 6, read-out: MIC
  MIC: > 4 µg/mL
P. aeruginosa EN004; [2]
  MIC: >4 µg/mL
A. baumannii EN007; Acinetobacter baumannii, EN007, Combination 1 AZT+trimethoprim+uridine, Table 16, read-out: MIC
  MIC: > 4 µg/mL
A. baumannii EN007; Acinetobacter baumannii, EN007, Combination 2 AZT+trimethoprim+uridine+thymidine, Table 16, read-out: MIC
  MIC: > 4 µg/mL
A. baumannii EN007; Acinetobacter baumannii, EN007, combination AZT+trimethoprim+uridine, Table 6, read-out: MIC
  MIC: > 4 µg/mL
A. baumannii EN007; [2]
  MIC: >4 µg/mL
S. aureus EN008
  MIC: > 4 µg/mL
P. aeruginosa EN014; EN014, Combination 1 AZT+trimethoprim+uridine, Table 16
  MIC: > 4 µg/mL
P. aeruginosa EN014; EN014, Combination 2 AZT+trimethoprim+uridine+thymidine, Table 16
  MIC: > 4 µg/mL
P. aeruginosa EN014; EN014, combination AZT+trimethoprim+uridine, Table 6
  MIC: > 4 µg/mL
A. baumannii EN016; EN016, Combination 1 AZT+trimethoprim+uridine, Table 16
  MIC: > 4 µg/mL
A. baumannii EN016; EN016, Combination 2 AZT+trimethoprim+uridine+thymidine, Table 16
  MIC: > 4 µg/mL
A. baumannii EN016; EN016, combination AZT+trimethoprim+uridine, Table 6
  MIC: > 4 µg/mL
E. coli; AZT 30 mg/kg
  CFU/ml PF: 1.65E+04 CFU/ml and 4.25E+05 CFU/ml and 1.10E+07 CFU/ml and 6.75E+05 CFU/ml
  log CFU/ml PF: 4.22 log CFU/ml and 5.63 log CFU/ml and 7.04 log CFU/ml and 5.83 log CFU/ml
  score at sampling: 1
E. coli; murine peritonitis model
  inhibition in mice infected with E. coli (in words): slight inhibition
S. aureus strain no 13; NO13, read-out: MIC AZT, Iclaprim 0, Uridine 0 μg/ml
  MIC: > 32 µg/mL
S. aureus strain no 13; NO13, read-out: MIC AZT, Iclaprim 0, Uridine 100 μg/ml
  MIC: > 32 µg/mL
S. aureus strain no 13; NO13, read-out: MIC AZT, Iclaprim 0, Uridine 300 μg/ml
  MIC: > 32 µg/mL
S. aureus strain no 13; NO13, read-out: MIC AZT, Iclaprim 0, Uridine 500 μg/ml
  MIC: > 32 µg/mL
S. aureus strain no 13; NO13, read-out: MIC AZT, Iclaprim 0.03, Uridine 300 μg/ml
  MIC: ≤ 0.008 µg/mL
S. aureus strain no 13; NO13, read-out: MIC AZT, Iclaprim 0.03, Uridine 500 μg/ml
  MIC: ≤ 0.008 µg/mL
E. coli strain no 2; NO2, read-out: MIC AZT, Iclaprim 0.1
  MIC: > 8 µg/mL
E. coli strain no 2; NO2, read-out: MIC AZT, Iclaprim 0.2
  MIC: > 8 µg/mL

## CC(C)(O/N=C(\C(=O)N[C@@H]1C(=O)N2C(C(=O)[O-])=C(C[n+]3ccccc3)CS[C@H]12)c1csc(N)n1)C(=O)O [CAZ, ceftazidime]
S. flexneri APV00906
  Antibiogram category (resistance pattern): |
K. pneumoniae EN0262
  MIC: >32 µg/mL

## CO/N=C(\C(=O)N[C@@H]1C(=O)N2C(C(=O)[O-])=C(C[N+]3(C)CCCC3)CS[C@H]12)c1csc(N)n1 [FEP, cefepime]
K. pneumoniae EN0262
  MIC: >16 µg/mL

## CN(C)c1cc(NC(=O)CNC(C)(C)C)c(O)c2c1C[C@H]1C[C@H]3[C@H](N(C)C)C(O)=C(C(N)=O)C(=O)[C@@]3(O)C(O)=C1C2=O [TGC, tigecycline]
K. pneumoniae EN0262
  MIC: 2 µg/mL (≈ 3.41 µM)

## C[C@H]1[C@H](NC(=O)/C(=N\OC(C)(C)C(=O)O)c2csc(N)n2)C(=O)N1S(=O)(=O)O [ATM, aztreonam]
K. pneumoniae EN0262
  MIC: >16 µg/mL

## CO/N=C(\C(=O)N[C@@H]1C(=O)N2C(C(=O)O)=C(COC(C)=O)CS[C@H]12)c1csc(N)n1 [CTX, cefotaxime]
K. pneumoniae EN0262
  MIC: >32 µg/mL

## piperacillin-tazobactam [TZP]
S. flexneri APV00906
  Antibiogram MIC: ≤ 4 µg/mL
S. flexneri APV00907
  Antibiogram MIC: ≤ 4 µg/mL
S. sonnei APV00908
  Antibiogram MIC: ≤ 4 µg/mL
K. pneumoniae EN0262
  MIC: 64 µg/mL

## gentamicin
S. flexneri APV00906
  Antibiogram MIC: 4 µg/mL
  Antibiogram category (resistance pattern): R*
S. flexneri APV00907
  Antibiogram MIC: ≤ 1 µg/mL
  Antibiogram category (resistance pattern): R*
S. sonnei APV00908
  Antibiogram MIC: ≤ 1 µg/mL
  Antibiogram category (resistance pattern): R*
K. pneumoniae EN0262
  MIC: 1 µg/mL

## amoxicillin-clavulanic acid [AMC]
S. flexneri APV00906
  Antibiogram MIC: 4 µg/mL
S. flexneri APV00907
  Antibiogram MIC: 16 µg/mL
  Antibiogram category (resistance pattern): |
S. sonnei APV00908
  Antibiogram MIC: ≤ 2 µg/mL
K. pneumoniae EN0262
  MIC: >64 µg/mL

## C[C@@H](O)[C@H]1C(=O)N2C(C(=O)O)=C(S[C@@H]3CN[C@H](C(=O)N(C)C)C3)[C@H](C)[C@H]12 [MEM, meropenem]
K. pneumoniae EN0262
  MIC: >8 µg/mL

## trimethoprim-sulfamethoxazole [SXT]
S. flexneri APV00906
  Antibiogram MIC: ≥ 320 µg/mL
S. flexneri APV00907
  Antibiogram MIC: ≥ 320 µg/mL
S. sonnei APV00908
  Antibiogram MIC: ≥ 160 µg/mL
K. pneumoniae EN0262
  MIC: 4 µg/mL

## O=c1[nH]c(=O)n([C@H]2C[C@H](O)[C@@H](CO)O2)cc1Br [BrdUrd]
S. aureus strain no 13; uridine 10 μg/ml
  MIC BrdUrd: ≤2 µg/mL
S. aureus strain no 13; uridine 100 μg/ml
  MIC BrdUrd: ≤2 µg/mL

## NCC[C@H](O)C(=O)N[C@@H]1C[C@H](N)[C@@H](O[C@H]2O[C@H](CN)[C@@H](O)[C@H](O)[C@H]2O)[C@H](O)[C@H]1O[C@H]1O[C@H](CO)[C@@H](O)[C@H](N)[C@H]1O [AMK, amikacin]
S. flexneri APV00906
  Antibiogram category (resistance pattern): R*
S. flexneri APV00907
  Antibiogram category (resistance pattern): R*
S. sonnei APV00908
  Antibiogram category (resistance pattern): R*
K. pneumoniae EN0262
  MIC: 8 µg/mL (≈ 13.7 µM)

## colistin [CST]
K. pneumoniae EN0262
  MIC: 1 µg/mL

## COc1cc(Cc2cnc(N)nc2N)c2c(c1OC)OC(C1CC1)C=C2 (centres unmarked) [Iclaprim, iclaprim]
S. aureus strain no 13; NO13, read-out: MIC Iclaprim, Uridine 0 μg/ml
  MIC: > 16 µg/mL
S. aureus strain no 13; NO13, read-out: MIC Iclaprim, Uridine 100 μg/ml
  MIC: > 16 µg/mL
